# Measurements as given in PubChem BioAssay (NCI).
#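 Protocol summary: plate cells (96-well), add compound at 5 concentrations, incubate 48 h, interpolate endpoints linearly. GI50 marks 50% less growth. TGI: concentration producing complete growth inhibition.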
# What was measured:
# Experiment in all cases: inhibition of tumour cell growth, NCI panel, 48 h
# HCC-2998 colon = system: HCC-2998 colon
# HL-60(TB) leukemia = system: HL-60(TB) leukemia
# NCI-H23 lung = system: NCI-H23 lung
# SF-295 CNS = system: SF-295 CNS
# SK-MEL-2 melanoma = system: SK-MEL-2 melanoma
# SK-MEL-28 melanoma = system: SK-MEL-28 melanoma
# ACHN renal = system: ACHN renal
# NCI-H522 lung = system: NCI-H522 lung
# UO-31 renal = system: UO-31 renal
# T-47D breast = system: T-47D breast
Structure (SMILES),TGI (HCC-2998 colon),TGI (HL-60(TB) leukemia),TGI (NCI-H23 lung),TGI (SF-295 CNS),TGI (SK-MEL-2 melanoma),TGI (SK-MEL-28 melanoma),TGI (ACHN renal),TGI (NCI-H522 lung),TGI (UO-31 renal),TGI (T-47D breast),GI50 (ACHN renal),GI50 (HL-60(TB) leukemia),GI50 (NCI-H23 lung),GI50 (NCI-H522 lung),GI50 (SF-295 CNS),GI50 (SK-MEL-2 melanoma),GI50 (SK-MEL-28 melanoma),GI50 (T-47D breast),GI50 (UO-31 renal),GI50 (HCC-2998 colon)
CN(C)CCNC(=O)c1cccc2cc3cc(O)ccc3nc12,8.3 µM,2.37 µM,3.24 µM,3.4 µM,3.81 µM,4.65 µM,–,–,–,–,–,–,–,–,–,–,–,–,–,–
COc1ccc2nc3c(c(NCCCN(C)C)c2c1)CCCC3,21.5 µM,29.6 µM,31.4 µM,29 µM,37.1 µM,30.9 µM,55.3 µM,31.3 µM,39.6 µM,–,–,–,–,–,–,–,–,–,–,–
CC(=O)NC1=C(NCCCl)C(=O)c2ccccc2C1=O,> 100 µM,–,80.1 µM,> 100 µM,–,> 100 µM,> 100 µM,59.3 µM,–,84.1 µM,–,–,–,–,–,–,–,–,–,–
Cc1ccc(-c2nnc(CCCCCCCCc3nnc(-c4ccc(C)cc4O)n3N)n2N)c(O)c1,> 100 µM,–,> 100 µM,> 100 µM,> 100 µM,> 100 µM,> 100 µM,> 100 µM,> 100 µM,> 100 µM,–,–,–,–,–,–,–,–,–,–
Cc1ccnc2nc(N)ccc12,–,> 100 µM,> 100 µM,> 100 µM,> 100 µM,> 100 µM,> 100 µM,> 100 µM,> 100 µM,> 100 µM,–,–,–,–,–,–,–,–,–,–
COc1ccc(/C=C/C(=O)c2ccc(-n3cc(CN4CCN(c5cc6c(cc5F)c(=O)c(C(=O)O)cn6C5CC5)CC4)nn3)cc2)cc1OC,–,> 100 µM,22.3 µM,> 100 µM,> 100 µM,10.4 µM,45.2 µM,> 100 µM,9.01 µM,> 100 µM,3.5 µM,3.18 µM,2.97 µM,4.25 µM,2.91 µM,21.1 µM,2.77 µM,3.16 µM,1.73 µM,–
Cc1ccc(Sc2ccccc2[N+](=O)[O-])cc1,68.3 µM,58.6 µM,78.2 µM,70.9 µM,> 100 µM,60 µM,> 100 µM,–,> 100 µM,–,–,–,–,–,–,–,–,–,–,–
[O-][n+]1c(CN2CCCCC2)nc2cccc3c2c1-c1ccccc1-3,31.8 µM,> 100 µM,48.5 µM,84 µM,43.7 µM,> 100 µM,70.5 µM,–,26.3 µM,–,–,–,–,–,–,–,–,–,–,–
CC12CCCCC1=[N+]([O-])C(C)(C)N2O (configuration not stated),> 100 µM,–,> 100 µM,> 100 µM,> 100 µM,> 100 µM,> 100 µM,–,> 100 µM,> 100 µM,–,–,–,–,–,–,–,–,–,–
O=NN(CCF)C(=O)NC1CC2CCC1C2 (configuration not stated),> 100 µM,> 100 µM,> 100 µM,> 100 µM,> 100 µM,> 100 µM,–,> 100 µM,> 100 µM,–,–,–,–,–,–,–,–,–,–,–
CC1(C)C(CCO)CC1n1ccc(=O)[nH]c1=O (configuration not stated),> 100 µM,–,–,> 100 µM,> 100 µM,> 100 µM,> 100 µM,–,> 100 µM,> 100 µM,–,–,–,–,–,–,–,–,–,–
C=C(C)C1CC/C(C)=C/CC[C@]2(C)O[C@@H]2CCC2=CC1OC2=O (some centres not stated),> 100 µM,–,> 100 µM,> 100 µM,> 100 µM,> 100 µM,–,> 100 µM,25.3 µM,> 100 µM,–,–,36.8 µM,> 100 µM,24 µM,57.5 µM,> 100 µM,18.5 µM,12.7 µM,80 µM
CCOC(=O)c1cc2c(OCc3ccccc3)c(OC)cc3c2c(n1)N(c1ccc(OC)cc1)C(C)C3 (configuration not stated),> 50 µM,> 50 µM,> 50 µM,> 50 µM,> 50 µM,> 50 µM,> 50 µM,> 50 µM,> 50 µM,–,–,–,–,–,–,–,–,–,–,–
O=c1c2ccccc2nc(-c2ccccc2)n1NC(=S)Nc1ccc(Cl)cc1,–,> 100 µM,> 100 µM,> 100 µM,> 100 µM,91.6 µM,> 100 µM,> 100 µM,> 100 µM,–,–,–,–,–,–,–,–,–,–,–
NC(Cc1c[nH]c2cc([N+](=O)[O-])ccc12)C(=O)O (configuration not stated),–,–,> 100 µM,> 100 µM,> 100 µM,> 100 µM,> 100 µM,> 100 µM,> 100 µM,> 100 µM,–,–,–,–,–,–,–,–,–,–
CCN(CC)CCCNC(=O)c1cc2cc(NC(=O)c3cc4cc([N+](=O)[O-])ccc4[nH]3)ccc2[nH]1,> 100 µM,–,> 100 µM,> 100 µM,> 100 µM,> 100 µM,> 100 µM,–,> 100 µM,> 100 µM,–,–,–,–,–,–,–,–,–,–
CC(=O)OC12c3ccccc3C(c3ccccc31)C1C(=O)N(c3ccccn3)C(=O)C12 (configuration not stated),> 100 µM,> 100 µM,> 100 µM,> 100 µM,–,> 100 µM,–,–,57.9 µM,> 100 µM,–,–,–,–,–,–,–,–,–,–
CCC(COC(=O)CC[C@@H](NC(=O)C(C)NC(=O)C(C)OC1C(O)C(CO)OC(OCc2ccccc2)C1NC(C)=O)C(N)=O)NC1c2ccccc2Nc2cccc([N+](=O)[O-])c21 (some centres not stated),> 100 µM,> 100 µM,> 100 µM,> 100 µM,> 100 µM,> 100 µM,> 100 µM,> 100 µM,> 100 µM,–,–,–,–,–,–,–,–,–,–,–
Cc1cn(C2CC(CCCO)C(CO)O2)c(=O)[nH]c1=O (configuration not stated),> 100 µM,> 100 µM,> 100 µM,> 100 µM,> 100 µM,> 100 µM,> 100 µM,> 100 µM,> 100 µM,–,–,–,–,–,–,–,–,–,–,–
O=C1CC(C(CC(=O)c2ccccc2)c2ccccc2)C(=O)c2ccccc2N1 (configuration not stated),> 100 µM,> 100 µM,> 100 µM,> 100 µM,41.4 µM,–,> 100 µM,–,40.4 µM,64.4 µM,–,–,–,–,–,–,–,–,–,–
COc1cccc(/C(Cl)=C(\C=O)c2cccc(OC)c2)c1,30.5 µM,12.5 µM,22.7 µM,35.6 µM,32.7 µM,25.5 µM,25.8 µM,11.4 µM,68.1 µM,–,–,–,–,–,–,–,–,–,–,–
Cc1nnc2n(c1=O)CCN2C,> 100 µM,> 100 µM,> 100 µM,> 100 µM,> 100 µM,> 100 µM,> 100 µM,–,> 100 µM,> 100 µM,–,–,–,–,–,–,–,–,–,–
